Reference: patent US7943628B2, “Pyrimidine derivatives” (Pfizer Limited, priority 2005, dated 2011)

Target: T1, histamine H4 receptor (Homo sapiens, UniProt Q9H3N8)
T1 construct: expressed in transfected cells; host or cells: CHO cells
Experiment: H4 binding, method 1 ([3H]-histamine filtration binding on CHO cell membranes)
Conditions: for Ki: H4 binding, method 1, Ki calculated from IC50 (Cheng-Prussoff)
Description: Cell pellets from CHO cells expressing the histamine H4 receptor were homogenised in ice-cold 50 mM Tris-HCl/0.5 mM CaCl2 buffer containing a protease inhibitor cocktail (Roche®, United Kingdom) using a ground glass homogeniser. Homogenates were centrifuged at 48000 g for 30 min at 4° C. The membrane pellet was resuspended in fresh buffer and the centrifugation step was repeated as described above. The membrane pellet was resuspended in 50 mM Tris-HCl in the same volume as the original cell pellet. Aliquots of membrane preparations were stored at −80° C. and were used for [^3H]-Histamine binding experiments.
Cell membranes (20-35 μg/well) were incubated for 90 minutes shaking at room temperature with 3 nM [2,5-^3H]Histamine dihydrochloride (30-60 Ci/mmol) in 50 mM Tris-HCl (pH 7.4), with or without competing H4 ligands. The reaction was terminated by rapid filtration through 0.5% polyethylenimine-soaked Unifilter GF/B plates (Packard) followed by three washes with 1 ml ice-cold 50 mM Tris-HCl. Filters were dried for 45 min at 45° C. and bound radiolabel was determined using scintillation counting techniques. Non-specific binding was defined with 10 μM JNJ7777120.

T1 sequence (Q9H3N8 whole entry): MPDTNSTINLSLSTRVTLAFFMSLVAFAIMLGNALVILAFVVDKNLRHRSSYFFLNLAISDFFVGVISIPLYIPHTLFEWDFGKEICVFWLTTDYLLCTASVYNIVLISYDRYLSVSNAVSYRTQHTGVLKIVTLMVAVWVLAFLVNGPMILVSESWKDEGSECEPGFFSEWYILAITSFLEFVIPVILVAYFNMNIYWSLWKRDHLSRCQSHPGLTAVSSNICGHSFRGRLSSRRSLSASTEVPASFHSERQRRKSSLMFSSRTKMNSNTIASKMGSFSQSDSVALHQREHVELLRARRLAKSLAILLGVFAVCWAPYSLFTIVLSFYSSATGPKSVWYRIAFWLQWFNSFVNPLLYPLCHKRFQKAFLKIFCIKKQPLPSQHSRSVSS

SMILES	Ki	inhibition at 10 µM (1.5 h)
CC(C)Nc1cc(N2CC[C@@H]3NCC[C@@H]3C2)nc(N)n1 (racemic) [Example 137, N^4-Isopropyl-6-[(3aR*,7aS*)-octahydro-5H-pyrrolo[3,2-c]pyridin-5-yl]pyrimidine-2,4-diamine]	8.25 nM	–
CC(C)(C)CNc1cc(N2CC[C@@H]3NCC[C@@H]3C2)nc(N)n1 (racemic) [Example 162, N^4-(2,2-Dimethylpropyl)-6-[(3aR*,7aS*)-octahydro-5H-pyrrolo[3,2-c]pyridin-5-yl]pyrimidine-2,4-diamine]	2.91 nM	–
Nc1nc(NCC2CC2)cc(N2CC[C@@H]3NCC[C@@H]3C2)n1 (racemic) [Example 188, N^4-(Cyclopropylmethyl)-6-[(3aR*,7aS*)-octahydro-5H-pyrrolo[3,2-c]pyridin-5-yl]pyrimidine-2,4-diamine]	25.5 nM	–
CCNc1cc(N2CC[C@@H]3NCC[C@@H]3C2)nc(N)n1 (racemic) [Example 193, N^4-Ethyl-6-[(3aR*,7aS*)-octahydro-5H-pyrrolo[3,2-c]pyridin-5-yl]pyrimidine-2,4-diamine]	31 nM	–
CNc1cc(N2CC[C@@H]3NCC[C@@H]3C2)nc(N)n1 (racemic) [Example 200, N^4Methyl-6-[(3aR*,7aS*)-octahydro-5H-pyrrolo[3,2-c]pyridin-5-yl]pyrimidine-2,4-diamine]	34 nM	–
CC(C)(C)Nc1cc(N2C[C@@H]3CCCN[C@@H]3C2)nc(N)n1 (relative stereo) [Example 150, N^4-(tert-Butyl)-6-[(4aS*,7aS*)-octahydro-6H-pyrrolo[3,4-b]pyridin-6-yl]pyrimidine-2,4-diamine]	11.8 nM	–
N[C@@]12C[C@@H]1CN(c1cc(NCC3CC3)ncn1)C2 (relative stereo) [Example 304, (1S*,5R*)-3-{6-[(Cyclopropylmethyl)amino]pyrimidin-4-yl}-3-azabicyclo[3.1.0]hexan-1-amine]	–	19%
CN(C)[C@H]1CCN(c2cc(NCCC(C)(C)C)ncn2)C1 [Example 2, 6-[(3S)-3-(Dimethylamino)pyrrolidin-1-yl]-N-(3,3-dimethylbutyl)pyrimidin-4-amine]	485 nM	–
CN1C[C@@H]2CN(c3cc(NCCC(C)(C)C)ncn3)C[C@@H]2C1 [Example 3, N-(3,3-Dimethylbutyl)-6-[(3aR*,6aS*)-5-methylhexahydropyrrolo[3,4-c]pyrrol-2(1H)-yl]pyrimidin-4-amine]	220 nM	–
CN(C)C1CN(c2cc(NCCC(C)(C)C)ncn2)C1 [Example 4, 6-[3-(Dimethylamino)azetidin-1-yl]-N-(3,3-dimethylbutyl)pyrimidin-4-amine]	374 nM	–
CN1C[C@@H]2C[C@H]1CN2c1cc(NCCC(C)(C)C)ncn1 [Example 5, N-(3,3-Dimethylbutyl)-6-[(1S,4S)-5-methyl-2,5-diazabicyclo[2.2.1]hept-2-yl]pyrimidin-4-amine]	263 nM	–
CC(C)(C)CCNc1cc(N[C@H]2CCNC2)ncn1 [Example 6, N-(3,3-Dimethylbutyl)-N′-[(3S)-pyrrolidin-3-yl]pyrimidine-4,6-diamine]	502 nM	–
CC(C)(C)CCNc1cc(N[C@@H]2CCNC2)ncn1 [Example 7, N-(3.3-Dimethylbutyl)-N′-[(3R)-pyrrolidin-3-yl]pyrimidine-4,6-diamine]	939 nM	–
CN1CC[C@@H](Nc2cc(NCCC(C)(C)C)ncn2)C1 [Example 8, N-(3,3-Dimethylbutyl)-N′-[(3R)-1-methylpyrrolidin-3-yl]pyrimidine-4,6-diamine]	593 nM	–
CCNc1cc(N2CC(NC)C2)nc(N)n1 [Example 70, N^4-Ethyl-6-[3-(methylamino)azetidin-1-yl]pyrimidine-2,4-diamine]	3.79 nM	–
CCCNc1cc(N2CC(NC)C2)nc(N)n1 [Example 73, 6-[3-(Methylamino)azetidin-1-yl]-N^4-propylpyrimidine-2,4-diamine]	0.88 nM	–
CNC1CN(c2cc(NC3CCC3)nc(N)n2)C1 [Example 75, N^4-Cyclobutyl-6-[3-(methylamino)azetidin-1-yl]pyrimidine-2,4-diamine]	1.07 nM	–
CC(C)CCNc1cc(N2CCN(C)CC2)ncn1 [Example 100, N-(3-Methylbutyl)-6-(4-methylpiperazin-1-yl)pyrimidin-4-amine]	40.2 nM	–
CC(C)(C)CCNc1cc(N[C@H]2CCNC2)nc(N)n1 [Example 101, N^4-(3,3-Dimethylbutyl)-N^6-[(3S)-pyrrolidin-3-yl]pyrimidine-2,4,6-triamine]	463 nM	–
CN1CCN(c2cc(NCCC(C)(C)C)nc(N)n2)CC1 [Example 102, N^4-(3,3-Dimethylbutyl)-6-(4-methylpiperazin-1-yl)pyrimidine-2,4-diamine]	57.3 nM	–
CCNc1cc(N2CCN(C)CC2)ncn1 [Example 103, N-Ethyl-6-(4-methylpiperazin-1-yl)pyrimidin-4-amine]	87.9 nM	–
CC(C)Nc1cc(N2CCN(C)CC2)ncn1 [Example 104, N-Isopropyl-6-(4-methylpiperazin-1-yl)pyrimidin-4-amine]	118 nM	–

SMILES	Ki	inhibition at 10 µM (1.5 h)
CC(C)CNc1cc(N2CCN(C)CC2)ncn1 [Example 105, N-Isobutyl-6-(4-methylpiperazin-1-yl)pyrimidin-4-amine]	68.8 nM	–
CN1CCN(c2cc(NCC3CC3)ncn2)CC1 [Example 106, N-(Cyclopropylmethyl)-6-(4-methylpiperazin-1-yl)pyrimidin-4-amine]	66.1 nM	–
CC(C)CCNc1cc(N[C@H]2CCNC2)ncn1 [Example 107]	271 nM	–
CCC(C)CNc1cc(N2CC(NC)C2)nc(N)n1 (centres unmarked) [Example 128, 6-[3-(Methylamino)azetidin-1-yl]-N^4-(2-methylbutyl)pyrimidine-2,4-diamine]	0.805 nM	–
CNC1CN(c2cc(N[C@@H](C)C(C)C)nc(N)n2)C1 [Example 129, N^4-[(1S)-1,2-Dimethylpropyl]-6-[3-(methylamino)azetidin-1-yl]pyrimidine-2,4-diamine]	3.78 nM	–
CNC1CN(c2cc(NCc3cc(F)ccc3F)nc(N)n2)C1 [Example 130, N^4-(2,5-Difluorobenzyl)-6-[3-(methylamino)azetidin-1-yl]pyrimidine-2,4-diamine]	9.69 nM	–
CNC1CN(c2cc(NCc3cccc(F)c3F)nc(N)n2)C1 [Example 131, N^4-(2,3-Difluorobenzyl)-6-[3-(methylamino)azetidin-1-yl]pyrimidine-2,4-diamine]	17.8 nM	–
CCCCNc1cc(N2CC(NC)C2)nc(N)n1 [Example 132, N^4-Butyl-6-[3-(methylamino)azetidin-1-yl]pyrimidine-2,4-diamine]	0.791 nM	–
CC(C)CNc1cc(N2CCCNCC2)nc(N)n1 [Example 133, 6-(1,4-Diazepan-1-yl)-N^4-isobutylpyrimidine-2,4-diamine]	0.653 nM	–
CN[C@@H]1CCN(c2cc(NC3CC3C)nc(N)n2)C1 (stereo partly drawn) [Example 134, 6-[(3R)-3-(Methylamino)pyrrolidin-1-yl]-N^4-(2-methylcyclopropyl)pyrimidine-2,4-diamine]	4.15 nM	–
CC(C)CNc1cc(N2CCCN(C)CC2)nc(N)n1 [Example 135, N^4-Isobutyl-6-(4-methyl-1,4-diazepan-1-yl)pyrimidine-2,4-diamine]	1.13 nM	–
Nc1nc(NCC2CC2)cc(N2CC(N3CCCC3)C2)n1 [Example 136, N^4-(Cyclopropylmethyl)-6-(3-pyrrolidin-1-ylazetidin-1-yl)pyrimidine-2,4-diamine]	7.21 nM	–
CN[C@@H]1CCN(c2cc(NC34CC(C3)C4)nc(N)n2)C1 [Example 138, N^4-Bicyclo[1.1.1]pent-1-yl-6-[(3R)-3-(methylamino)pyrrolidin-1-yl]pyrimidine-2,4-diamine]	5.8 nM	–
CCNc1cc(N2CCC(N)CC2)nc(N)n1 [Example 139, 6-(4-Aminopiperidin-1-yl)-N^4-ethylpyrimidine-2,4-diamine]	12.1 nM	–
CCCNc1cc(N2CC(C)(NC)C2)nc(N)n1 [Example 140, 6-[3-Methyl-3-(methylamino)azetidin-1-yl]-N^4-propylpyrimidine-2,4-diamine]	12.1 nM	–
CC(C)(C)CNc1cc(N2CC(N3CCCC3)C2)nc(N)n1 [Example 142, N^4-(2,2-Dimethylpropyl)-6-(3-pyrrolidin-1-ylazetidin-1-yl)pyrimidine-2,4-diamine]	3.04 nM	–
CNCCNc1cc(NCC(C)(C)C)nc(N)n1 [Example 143, N^4-(2,2-Dimethylpropyl)-N^6-[2-(methylamino)ethyl]pyrimidine-2,4,6-triamine]	72.4 nM	–
CN(C)CCNc1cc(NCC(C)(C)C)nc(N)n1 [Example 144, N^4-[2-(Dimethylamino)ethyl]-N^6-(2,2-dimethylpropyl)pyrimidine-2,4,6-triamine]	16.8 nM	–
CC(C)NC1CN(c2cc(NCC(C)(C)C)nc(N)n2)C1 [Example 145, N^4-(2,2-Dimethylpropyl)-6-[3-(isopropylamino)azetidin-1-yl]pyrimidine-2,4-diamine]	14.3 nM	–
CC[C@@H](C)Nc1cc(N2CC[C@@H](NC)C2)ncn1 [Example 146, 6-[(3R)-3-(Methylamino)pyrrolidin-1-yl]-N-[(1R)-1-methylpropyl]pyrimidin-4-amine]	13.7 nM	–
CCCCNc1cc(N2CC[C@@H](NC)C2)ncn1 [Example 147, N-Butyl-6-[(3R)-3-(methylamino)pyrrolidin-1-yl]pyrimidin-4-amine]	17.3 nM	–
CN[C@@H]1CCN(c2cc(NC(C)(C)C)nc(N)n2)C1 [Example 148, N^4-(tert-Butyl)-6-[(3R)-3-(methylamino)pyrrolidin-1-yl]pyrimidine-2,4-diamine]	4.89 nM	–
